Activity calls are given as the source filed them. The rule behind the calls is not given here.
Assays:
[1] = biological target: T1, Prostaglandin E2 receptor EP2 subtype (Homo sapiens, UniProt P43116); assay: Displacement of [3H]PGE2 from human EP2 receptor
Mus musculus [2] = assay: Induction of ovulation in sc dosed CD1 mouse; assay type: functional
Mus musculus [3] = assay: Induction of ovulation in po dosed CD1 mouse; assay type: functional
[4] = biological target: T1, Prostaglandin E2 receptor EP2 subtype; assay: Agonist activity at human EP2 receptor by cAMP assay; assay type: functional
[5] = biological target: T2, Prostaglandin E2 receptor EP4 subtype (Homo sapiens, UniProt P35408); assay: Displacement of […] from human EP4 receptor
T2 sequence (P35408 whole entry): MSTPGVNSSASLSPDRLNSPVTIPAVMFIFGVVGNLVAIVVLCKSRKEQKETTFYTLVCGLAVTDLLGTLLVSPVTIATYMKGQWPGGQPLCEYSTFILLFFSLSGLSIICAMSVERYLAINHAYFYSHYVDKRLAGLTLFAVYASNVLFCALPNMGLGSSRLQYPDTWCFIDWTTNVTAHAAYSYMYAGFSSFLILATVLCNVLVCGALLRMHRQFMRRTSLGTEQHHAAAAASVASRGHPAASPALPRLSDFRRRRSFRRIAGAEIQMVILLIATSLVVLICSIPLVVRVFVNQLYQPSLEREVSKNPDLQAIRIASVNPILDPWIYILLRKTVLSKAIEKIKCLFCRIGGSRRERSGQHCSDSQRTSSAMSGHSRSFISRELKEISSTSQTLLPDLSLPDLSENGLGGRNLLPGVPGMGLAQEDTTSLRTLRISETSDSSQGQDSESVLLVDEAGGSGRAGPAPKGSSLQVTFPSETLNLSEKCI

[6] = biological target: T2, Prostaglandin E2 receptor EP4 subtype; assay: Agonist activity at human EP4 receptor by cAMP assay; assay type: functional
Rattus norvegicus [7] = assay: Oral bioavailability in rat at 10 mg/kg; assay type: ADME, organism-based; details: in vivo
[8] = Tmax in rat at 10 mg/kg, sc; assay type: ADME, organism-based; parameters: dose 10 mg/kg, route subcutaneous; details: in vivo
[9] = Tmax in rat at 10 mg/kg, po; assay type: ADME, organism-based; parameters: dose 10 mg/kg, route oral; details: in vivo
[10] = Drug distribution in rat at 10 mg/kg, iv; assay type: ADME, organism-based; parameters: dose 10 mg/kg, route intravenous; details: in vivo, read-out: Drug uptake
Cavia porcellus [11] = assay: Inhibition of methacholine-induced bronchoconstriction in Duncan-Hartley guinea pig at >3 ug/kg; assay type: functional
[12] = Clearance in rat at 10 mg/kg; assay type: ADME, organism-based; parameters: dose 10 mg/kg; details: in vivo
Rattus norvegicus [13] = assay: AUC (0 to 48 hrs) in rat at 10 mg/kg, iv; assay type: ADME, organism-based, Plasma; parameters: time < 48 hr, dose 10 mg/kg, route intravenous; details: in vivo
Cavia porcellus [14] = organism: Cavia porcellus; assay: Inhibition of methacholine-induced bronchoconstriction in Duncan-Hartley guinea pig; assay type: functional
Rattus norvegicus [15] = assay: AUC (0 to 48 hrs) in rat at 10 mg/kg, sc; assay type: ADME, organism-based, Plasma; parameters: time < 48 hr, dose 10 mg/kg, route subcutaneous; details: in vivo
[16] = Half life in rat at 10 mg/kg, sc; assay type: ADME, organism-based; parameters: dose 10 mg/kg, route subcutaneous; details: in vivo
Rattus norvegicus [17] = assay: Bioavailability in rat at 10 mg/kg, sc; assay type: ADME, organism-based; details: in vivo
[18] = Tmax in rat at 10 mg/kg, iv; assay type: ADME, organism-based; parameters: dose 10 mg/kg, route intravenous; details: in vivo
Rattus norvegicus [19] = assay: AUC (0 to 48 hrs) in rat at 10 mg/kg, po; assay type: ADME, organism-based, Plasma; parameters: time < 48 hr, dose 10 mg/kg, route oral; details: in vivo
[20] = Half life in rat at 10 mg/kg, po; assay type: ADME, organism-based; parameters: dose 10 mg/kg, route oral; details: in vivo
[21] = Half life in rat at 10 mg/kg, iv; assay type: ADME, organism-based; parameters: dose 10 mg/kg, route intravenous; details: in vivo

T1 sequence (P43116 whole entry): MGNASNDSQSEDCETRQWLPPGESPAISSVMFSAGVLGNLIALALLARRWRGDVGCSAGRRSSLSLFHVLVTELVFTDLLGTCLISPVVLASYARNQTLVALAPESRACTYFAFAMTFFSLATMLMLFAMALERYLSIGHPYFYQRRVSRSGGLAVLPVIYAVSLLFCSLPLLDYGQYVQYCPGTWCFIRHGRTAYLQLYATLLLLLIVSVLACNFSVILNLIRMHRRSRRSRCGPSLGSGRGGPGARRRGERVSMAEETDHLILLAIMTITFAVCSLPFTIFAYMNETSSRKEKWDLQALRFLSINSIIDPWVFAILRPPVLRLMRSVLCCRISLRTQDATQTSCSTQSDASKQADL

In the case of `CCCCCC[C@H](O)/C=C/[C@H]1CCC(=O)N1CCc1ccc(C(=O)O)cc1`, the Ki [1] is reported as 54 nM.

For `CCCCC1([C@@H](O)/C=C/[C@H]2CCC(=O)N2CCc2ccc(C(=O)O)cc2)CCC1`, the Activity (Mus musculus [2]) was “inactive”, the ED50 (Mus musculus [3]) was 1 mg/kg and the EC50 [4] was 3 nM. It also gave a Ki [1] of 21 nM, a Ki [5] of 2 nM and an EC50 [6] of 0.3 nM.

With `CCCCC[C@H](O)/C=C/[C@H]1CCC(=O)N1CCc1ccc(C(=O)O)cc1` the F (Rattus norvegicus [7]) was 33%, the Tmax [8] was 0.25 h and the Tmax [9] was 4 h. For the same compound, the Vd [10] was 42.4 L/kg, the Inhibition (Cavia porcellus [11]) was over 50% and the clearance [12] was 9.17 mL/min/kg. For the same compound, the AUC (Rattus norvegicus [13]) was 18095.3 ng·h/mL, the EC50 [4] was 15 nM and the ED50 (Cavia porcellus [14]) was 0.0017 mg/kg. It also gave an AUC (Rattus norvegicus [15]) of 35175.6 ng·h/mL, a half-life [16] of 31.6 h and an EC50 [6] of 0.02 nM. The F (Rattus norvegicus [17]) was 82%, the Tmax [18] was 4.98 min and the AUC (Rattus norvegicus [19]) was 14657.8 ng·h/mL. The half-life [20] was 20.8 h and the half-life [21] was 14.3 h.

With `O=C(O)c1ccc(CCN2C(=O)CC[C@@H]2/C=C/[C@@H](O)Cc2ccccc2)cc1` the EC50 [4] was 434 nM, the Ki [1] was 2540 nM and the EC50 [6] was 0.03 nM.

`CCCC[C@H](O)/C=C/[C@H]1CCC(=O)N1CCc1ccc(C(=O)O)cc1` showed an EC50 [4] of 80 nM, a Ki [1] of 425 nM and a Ki [5] of 1 nM. The EC50 [6] was 0.04 nM.

Compound `CC[C@H](O)/C=C/[C@H]1CCC(=O)N1CCc1ccc(C(=O)O)cc1` has a Ki [1] of over 10000 nM and a Ki [5] of 490 nM.

Compound `CCCCC(C)(C)[C@H](O)/C=C/[C@H]1CCC(=O)N1CCc1ccc(C(=O)O)cc1` has an EC50 [4] of 19 nM, a Ki [1] of 141 nM and a Ki [5] of 9 nM. It also gave an EC50 [6] of 3 nM.

For `O=C(O)c1ccc(CCN2C(=O)CC[C@@H]2/C=C/[C@@H](O)Cc2cccc(Cl)c2)cc1`, the Activity (Mus musculus [2]) was “inactive”, the EC50 [4] was 250 nM and the Ki [1] was 1000 nM. The Ki [5] was 0.02 nM and the EC50 [6] was 0.03 nM.

`CCC[C@H](O)/C=C/[C@H]1CCC(=O)N1CCc1ccc(C(=O)O)cc1` gave a Ki [1] of 25000 nM and a Ki [5] of 27 nM.

In the case of `CCCC1([C@H](O)C/C=C/[C@H]2[C@H](O)CC(=O)[C@@H]2CCCCCCC(=O)OC)CCC1`, the Activity (Mus musculus [3]) is reported as “inactive”.
